Experimental data taken from patent US20260210856A1, “CONJUGATED OLIGOELECTROLYTES WITH BORON-DIPYRROMETHENE CORES AND METHODS THEREOF” (National University of Singapore, priority 2022, published 2026).

Key:
[1] = Fluorescence lifetime in water:glycerol mixtures of varying viscosities; format: physicochemical; conditions: 590 nm, 20° C.
Procedure: The BODIPY unit of COE-BYs are sensitive to the viscosity of its environment. As an example, COE-BYPhMe was added to mixtures of water and glycerol at various ratios. The viscosity of the local environment has the most significant effect on its emission intensity and emission lifetime. The plot of log τ (fluorescence lifetime) versus log η (solvent viscosity) is fitted by a straight line.
We examined the sensitivity of COE-BYs to changes in viscosity in solution by using different glycerol and water mixtures. The viscosities of the solutions were increased through increases of the glycerol fraction. Of interest was the relationship between the viscosity (η) and the amplitude-weighted average emission lifetime (τw), which is defined by
Each individual lifetime component Tr is normalized to the corresponding amplitude (Ai) derived from fitting the emission decay to a multiexponential model, where p is the total number of exponents (1 or 2). […] It is known that increases in environmental viscosity restricts the rotation of the phenyl rings surrounding the BODIPY unit, which diminishes non-radiative decay pathways of the excited state, resulting in longer fluorescence lifetimes. […] Due to the low emission, we could not accurately extract emission lifetimes from the fluorescence decays of COE-BYPhCN and COE-BYPhNO.

[2] = Photophysical properties in PBS and in SUVs (POPC:POPG 85:15); format: physicochemical
From the text: The photophysical properties of the COE-BY series were studied in phosphate-buffered saline (PBS) and within model lipid bilayers. Small unilamellar vesicles (SUVs) composed of 1-palmitoyl-2-oleoyl-glycero-3-phosphocholine (POPC) and 1-palmitoyl-2-oleoyl-sn-glycero-3-phospho-(1′-rac-glycerol) sodium (POPG) (85:15, mol/mol) were used to simulate the lipid environment in cell membranes. The absorption spectra in PBS for all compounds feature a main peak at ~550 nm, reflecting the presence of the BODIPY subunit (FIG. 9A). One also observes a 5-10 nm red-shift of lowest energy absorption peak with increasing electron-withdrawing strength of the phenyl substituents.
Upon inserting into lipid bilayers, the fluorescence intensity increases over 27-fold for COE-BYPhMe, 30-fold for COE-BYPhOC4, 35-fold for COE-BYPhCN and 40-fold for COE-BYPhNO, relative to the values measured in PBS (FIG. 1c and FIG. S5). The increase in emission intensity reflects a transition to a more rigid and hydrophobic environment. Quantum yields increase to 32% for COE-BYPhMe, 60% for COE-BYPhOC4, 13% for COE-BYPhCN, and 10% for COE-BYPhNO in SUVs from 1% for COE-BYPhMe, 3% for COE-BYPhOC4, and 0.5% for COE-BYPhCN in PBS. The QY of COE-BYPhNO in PBS cannot be accurately determined by using a conventional fluorometer due to its weak fluorescence. The maximum emission wavelengths are redshifted from 587/589 nm (COE-BYPhMe/OC4) to 605/611 nm (COE-BYPhCN/NO) as a result of the decreased HOMO-LUMO energy gaps. […] Furthermore, the fluorescence spectra of COE-BYs intercalated within SUVs show a narrow band at wavelengths between 587 nm and 611 nm, with a full width half maximum (FWHM) linewidth of 52-68 nm (Table 1).

HeLa cells [3] = assay: Brightness of stained HeLa cells by flow cytometry; format: cell-based; conditions: FIG. 11
From the text: To evaluate their potential use as fluorescent probes for intracellular imaging, we first analyzed the brightness of each COE-BY molecule when used to stain HeLa cells using flow cytometry. As flow cytometry reports the fluorescence intensity per cell, this analysis would enable simultaneous evaluation of the cellular uptake and brightness. […] Based on these parameters, COE-BYPhOC4 was chosen for further in vitro imaging studies.

HeLa cells [4] = assay: Membrane tension imaging during endocytosis, 2P-FLIM; format: cell-based
Procedure: We thus stained HeLa cells with COE-BYPhOC4 for different lengths of time and captured 2P-FLIM images of the cell state at specific intervals. For these studies, we correlated the time-dependent colocalization experiments with 2P-FLIM data to link τw with the identity of the vesicles. […] Time dependent colocalization with Rab5a allowed us a means of assigning the identities of the vesicles. At 2 hours, the blue and green vesicles in FLIM image were identified as early endosomes. Upon increasing staining time to 4 h, all COE-BYPhOC4 entered the cells with a further increase in τw, leading to a main yellow color. […] As previously analyzed from the colocalization images in FIG. 12, all the COEs resided exclusively within late endosomes at this point in time. […] This observation is potentially reflective of the different domains in endosomes.

MDCK cells = assay: Confocal microscopy of stained cells; format: cell-based; conditions: 1 μM, 10 minutes
From the text: Our next objective was to study the cellular distribution of COE-BYPhOC4 series at different time points by conventional confocal microscopy.

[5] = Fluorescence imaging of stained GUVs; format: physicochemical; conditions: POPC GUV, normal light
From the text: Giant unilamellar vesicles (GUVs) composed of 1-palmitoyl-2-oleoyl-glycero-3-phosphocholine (POPC) were chosen as the model membrane system for the initial studies because of their ideal size (diameter>1 μm) for imaging via optical microscopy. […] COE-BY series are thus embedded within the bilayer as membrane-spanning probes, a geometric consideration relevant to measuring membrane tension across the whole lipid bilayer, instead of a single leaflet.

**Q.** With CCCCOc1ccc(C2=C3C(C)=C(c4ccc(/C=C/c5cc(OCCCCCC[N+](C)(C)C)c(OCCCCCC[N+](C)(C)C)c(OCCCCCC[N+](C)(C)C)c5)cc4)C(C)=[N+]3[B-](F)(F)n3c(C)c(-c4ccc(/C=C/c5cc(OCCCCCC[N+](C)(C)C)c(OCCCCCC[N+](C)(C)C)c(OCCCCCC[N+](C)(C)C)c5)cc4)c(C)c32)cc1.[I-].[I-].[I-].[I-].[I-].[I-] [COE-BYPhOC4] as the compound, how does the “amplitude-weighted average emission lifetime τw” value ([1]; solution viscosity 22.5 cP) read?
**A.** 0.5 ns

**Q.** And the “amplitude-weighted average emission lifetime τw” value ([1]; solution viscosity 939 cP)?
**A.** 1.2 ns

**Q.** What about the FWHM ([2]; fluorescence spectra, intercalated within SUVs) of the same compound?
**A.** 56 nm

**Q.** What about the “ΦF in PBS” value ([2]; in PBS) of the same compound?
**A.** 3%

**Q.** What about the λabs ([2]; in PBS) of the same compound?
**A.** 540 nm

**Q.** And the “λem in PBS” value ([2]; in PBS)?
**A.** 602 nm

**Q.** What about the “ΦF in SUVs” value ([2]; in SUVs) of the same compound?
**A.** 60%

**Q.** What about the “λem in SUVs” value ([2]; in SUVs) of the same compound?
**A.** 589 nm

**Q.** What about the “fluorescence intensity increase upon inserting into lipid bilayers” value ([2]; relative to the values measured in PBS) of the same compound?
**A.** > 30 fold

**Q.** What about the “brightness of stained cells” value (HeLa cells [3]) of the same compound?
**A.** highest brightness

**Q.** What about the τw (HeLa cells [4]; 8 to 24 h, red-orange vesicles) of the same compound?
**A.** 2.7-3.0 ns

**Q.** And the τw (HeLa cells [4]; 0.5 h, plasma membranes)?
**A.** ≈ 1.5 ns

**Q.** And the τw (HeLa cells [4]; 0.5 h, regions beginning to be internalized)?
**A.** ≈ 1.0 ns

**Q.** What about the τw (HeLa cells [4]; vesicles taken up earlier (green)) of the same compound?
**A.** 2.0-2.4 ns

**Q.** And the staining pattern (MDCK cells)?
**A.** strong fluorescence signals were observed on the plasma membranes

**Q.** And the “fluorescence of stained GUV” value [5]?
**A.** strong uniform fluorescence
